# Data taken from patent publication US6929790B2, “Compositions to control oral microbial oxidation-reduction (Eh) levels” (priority 1996, dated 2005).
# Experiments:
# [1] = test system: mixed bacteria in salivary sediment; assay: Eh lowering by amino acids or salivary supernatant in the salivary sediment system; conditions: 3 mM amino acid, 16.7% salivary sediment, 60 mM phosphate buffer, 37° C., up to 24 hours; for Lowest Eh reached, Group A: Group A (highest Eh levels); for Lowest Eh reached, Group B: Group B (next lowest Eh)
# Excerpt: This model utilizes the mixed oral bacteria collected in the salivary sediment obtained from whole saliva by centrifugation. […] This model is recognized in the art as an effective proxy to study the microbial metabolic and related biochemical processes of the oral cavity.
# (§1) To collect salivary sediment and salivary supernatant for the assay, saliva stimulated by chewing paraffin wax was expectorated into test-tubes chilled in cracked ice. […] Following collection, the saliva was centrifuged at 1740×g for 15 minutes and the supernatant was subsequently removed by pipette and kept on ice until the assay was run. Next, the sediment was washed three times with ice cold distilled water to remove any residual salivary supernatant. The washed salivary sediment was chilled in crushed ice until the assay was run. Prior to incubating the samples and running the assay, the washed salivary sediment was re-suspended in distilled water to a final concentration of 50 percent (V/V).
# A control tube contained sediment and water.
# (§2) The oxidation-reduction potential (Eh) was determined in each incubation mixture using a platinum electrode and a potassium chloride salt bridge leading to a calomel reference electrode connected to a pH meter used as a millivoltmeter.
# [2] = test system: soft tissues of the oral cavity; conditions: cited from earlier work
# mixed oral bacteria = assay: Eh during incubation of salivary sediment and salivary supernatant with zinc chloride and/or hydrogen peroxide (Example II); conditions: zinc chloride 6.0 mM (0.08%), hydrogen peroxide 0.5%, 37° C., 24 hours
# Method: as §1, §2
# A tube was prepared containing salivary sediment and salivary supernatant only (water control).
# oral bacteria [3] = assay: In vivo cysteine rinse challenge, VSC (Halimeter) and tongue Eh before and after test rinse (Examples IV-VII); parameters: species or system human subjects
# Method: The ability of a zinc chloride rinse solution to reduce or prevent the formation of volatile sulfur compounds (VSC) in vivo following successive challenges with a cysteine rinse was studied in this Example. The rinse solution consisted of zinc chloride at 6 mM (0.08%). […] The subject rinsed his/her mouth with 5 ml of a 6 mM cysteine solution for 30 seconds to stimulate substantial VSC production by the oral bacteria. […] Before and following the rinse, a Halimeter instrument was used to measure the volatile sulfur compounds (VSC) produced. Simultaneously, a platinum electrode was placed on the posterior dorsum surface of the tongue, just anterior to the circumvallate papillae to measure the Eh. After 20 minutes, the subject rinsed his/her mouth with 5 ml of the zinc chloride solution for 30 seconds. Again, the VSC of the subject's mouth air and the Eh were measured. The subject then rinsed successively with the 6 mM cysteine solution at 40, 60, 140, 320 and 380 minutes and the VSC and Eh of the subject's oral cavity were re-measured each time (see FIG. 5) using the Halimeter and the platinum electrode.
# (§3) As before, 5 ml of the zinc/peroxide/chloride ion composition of this invention was applied as a rinse for 30 seconds.
# as §3
# The abilities of 0.1% sodium chlorite rinse solutions, one without and one with zinc chloride at 6 mM (0.08%) were compared in this Example for their abilities to reduce or prevent the formation of VSC in vivo following successive challenges with a cysteine rinse as before. The oral rinse consisted of application of 5 ml for 30 seconds of either an 0.1% sodium chlorite solution or an 0.1% sodium chlorite solution to which zinc chloride at 0.08% had been added.
# [4] = 25° C.; cited from earlier work
# oral bacteria [5] = assay: Zinc ion concentration versus rate of volatile sulfur compound production from cysteine (FIG. 1); assay type: cell-based; conditions: inhibition is exponential
# Excerpt: Inhibition is exponential and occurs maximally once the zinc ion concentration reaches about 0.2%.
compound,measurement,setting,value
N[C@@H](Cc1ccccc1)C(=O)O [phenylalanine],"Lowest Eh reached, Group A",[1],100 millivolts
N[C@@H](CC(=O)O)C(=O)O [aspartic],"Lowest Eh reached, Group A",[1],80 millivolts
N[C@@H](CCC(=O)O)C(=O)O [glutamic],"Lowest Eh reached, Group B",[1],30 millivolts
N[C@@H](Cc1ccc(O)cc1)C(=O)O [tyrosine],"Lowest Eh reached, Group B",[1],40 millivolts
NCCC[C@H](N)C(=O)O [ornithine],"Lowest Eh reached, Group B",[1],55 millivolts
OO [hydrogen peroxide],Hydrogen peroxide concentration above which it can be harmful to the soft tissues of the oral cavity,[2],3.0 to 3.5%
NCCCC[C@H](N)C(=O)O [lysine],"Lowest Eh reached, Group A",[1],95 millivolts
[Cl-].[Cl-].[Zn+2] [zinc chloride],Decrease in the Eh during incubation,mixed oral bacteria,some decrease in the Eh
same,Eh of the incubation mixture compared to salivary supernatant plus salivary sediment control,mixed oral bacteria,significantly raised the Eh
same,Time for which the VSC response to subsequent cysteine rinses was retarded,"oral bacteria [3]; Example IV, zinc chloride 6 mM (0.08%), 5 ml rinse for 30 seconds",about 5 hours
same,VSC response to cysteine rinsing,"oral bacteria [3]; Example IV, zinc chloride 6 mM (0.08%), 5 ml rinse for 30 seconds, 6 mM cysteine challenges",reduced the ability of the oral bacteria to produce the VSC response to cysteine rinsing
same,Eh during rinsing,"oral bacteria [3]; Example IV, zinc chloride 6 mM (0.08%), platinum electrode on tongue dorsum",raised to a small degree
same,Solubility,[4],432 @ 25 °C g/100 cc
[Zn+2] [zinc ion],Zinc ion concentration at which inhibition of volatile sulfur compound production from cysteine is maximal,oral bacteria [5],about 0.2%
sodium chlorite,Inhibition of VSC production,"oral bacteria [3]; Example VII, 0.1% sodium chlorite solution, 5 ml for 30 seconds",no inhibition of VSC production
N=C(N)NCCC[C@H](N)C(=O)O [arginine],"Lowest Eh reached, Group B",[1],25 millivolts
